What was measured:
ethanol-fed Wistar rats [1] = experiment: Liver and serum lipid parameters of ethanol-fed rats; format: in vivo, rat; details: for liver cholesterol decrease compared to disease group / reduction of ethanol effect on hepatic cholesterol / reduction of ethanol effect on hepatic triglycerides / liver phospholipids decrease compared to disease group / liver triglycerides decrease compared to disease group / reduction of ethanol effect on hepatic phospholipids: liver; for reduction of ethanol effect on hepatic triglycerides: average over 0.4/4/40 mg/kg b.w. (UDCA 40 mg/kg), oral, 10 weeks; for liver phospholipids decrease compared to disease group / liver triglycerides decrease compared to disease group / reduction of ethanol effect on hepatic phospholipids / reduction of ethanol effect on serum triglycerides / serum triglycerides decrease compared to disease group: average over doses (UDCA 40 mg/kg)
Text: A total of 68 female Wistar rats (Institute of Pharmacology and Biochemistry Breeding House, Minsk, Belarus) aged 80–90 days and weighting 180–200 g at the beginning of the experiments were used in the study. Each rat group (n = 6–8) was housed in a separate cage and had free access to the liquid diet during the full study period. Prior to the study, the animals were habituated for seven days to the cage conditions and experimental handling. The rats were maintained in a controlled experimental environment (20–25°C, 40–50% humidity, 12 h light per day, room with a 12-h light/dark cycle).
Rats were divided into ten groups characterized by the diet and the test compounds (S1 Table). Group 1 is the first control group in which a normal solid standard diet was fed for 12 weeks. All other groups received the liquid Lieber-DeCarli (LDC) diet (S2 Table), which combines food and drink in a liquid manner. It was prepared by ssniff Spezialdiäten GmbH, Soest. The addition of maltodextrin to this diet should compensate the pure caloric effect of ethanol, whereby 1.77 g maltodextrin replaces 1 g ethanol. The calorie value of both the control and ethanol diets was the same: 35% calories from fat, 11% from carbohydrates, 18% from protein and 36% from ethanol.
(§1) In the first two weeks rats of all groups–with the exception of group 1 –were fed with LDC diet plus maltodextrin in an appropriate amount to adapt the animals to the liquid diet. Group 2 is the second control group in which the isocaloric diet was administered for further 10 weeks until the end of the experiment. […] The test compounds I-ol, I-an and UDCA were dissolved in a 0.8% aqueous HPMC gel to obtain the appropriate concentrations: (1) I-ol with 0.4, 4 and 40 mg/kg b. w. (2) I-an with 0.4, 4 and 40 mg/kg b. w. (3) UDCA with 40 mg/kg b. w. Rats of group 2 and 3 received only HPMC as a placebo. The LDC diets were fed ad libitum and their intake per cage was controlled daily. The corresponding bottles were stored in the cages from 08:00 a. m. until 06:00 p. m. and replaced by drinking water bottles overnight until 08:00 a. m. in the next morning. Every day at the same time, the test compounds or only HPMC were administered intragastrically by oral gavage with an administration volume of 2 ml/kg b. w. After ten weeks of treatment, the rats were anesthetized with an intraperitoneal injection of a 5% pentobarbital solution and then killed by aorta scarification. Their livers were dissected and liver pieces frozen and stored in liquid nitrogen. A part of the liver was fixed for histological investigations. Blood was collected before sacrifice, centrifuged for serum preparation and finally stored in liquid nitrogen.
The serum marker enzyme activities, alanine aminotransferase (ALT), aspartate aminotransferase (AST), alkaline phosphatase (AP) and gamma-glutamyltransferase (γ-GT) as well as triglycerides and bilirubin were measured according to manufacturer’s instructions using standard commercial kits from Lachema (PLIVA-Lachema Diagnostika, Czech Republic). Serum concentrations of leptin, adiponectin and TNF-alpha were analyzed using commercial ELISA test kits: BioCat GmbH (Heidelberg, German) for adiponectin and TNF-alpha, BioVendor Laboratory Medicine Inc. (Brno, Czech Republic) for leptin. Insulin serum concentration was determined by radioimmunoassay using the commercially available kit RIO-insulin-PG-J125 (IBOCH, Minsk, Belarus). Glucose serum concentration was determined by the Accu-Check Active blood glucose testing system from Roche-Diagnostics GmbH (Mannheim, Germany).
Lipids were extracted with a chloroform: methanol mixture (2:1 v/v). Neutral lipids and phospholipids were separated into classes by thin-layer chromatography (TLC). Lipid fractions (triglycerides, cholesterol and its fractions) were measured in extracts from scraped spots by routine methods using the appropriate commercial kits. […]

ethanol-fed Wistar rats [2] = experiment: Liver histopathology of ethanol-fed rats; format: in vivo, rat; details: I-ol, I-an in their higher concentrations; UDCA 40 mg/kg b.w.; H.E. staining
Method: as §1
Liver samples were selected randomly, fixed in Bouin`s solution and embedded in paraffin wax. Histological sections were prepared and stained with haematoxylin and eosin. Other liver samples were fixed in a solution containing formaldehyde, paraformaldehyde and glutaraldehyde with a subsequent post-fixation in 1% osmium containing phosphate buffer pH 7.4 for further analysis. Liver tissue was embedded in a mixture of butyl-methyl-metacrylates. Semifine sections of 0.5–1.0 μm were stained with Asur II, methylen blue and basic fuxine.

[3] = molecular target: T1, human cytochrome P450 2E1 (Homo sapiens, UniProt P05181); experiment: Steady-state p-nitrophenol oxidation, CYP2E1 inhibition in SUPERSOMES; format: biochemical
T1 construct: purchased BD Biosciences
T1 sequence (P05181 whole entry): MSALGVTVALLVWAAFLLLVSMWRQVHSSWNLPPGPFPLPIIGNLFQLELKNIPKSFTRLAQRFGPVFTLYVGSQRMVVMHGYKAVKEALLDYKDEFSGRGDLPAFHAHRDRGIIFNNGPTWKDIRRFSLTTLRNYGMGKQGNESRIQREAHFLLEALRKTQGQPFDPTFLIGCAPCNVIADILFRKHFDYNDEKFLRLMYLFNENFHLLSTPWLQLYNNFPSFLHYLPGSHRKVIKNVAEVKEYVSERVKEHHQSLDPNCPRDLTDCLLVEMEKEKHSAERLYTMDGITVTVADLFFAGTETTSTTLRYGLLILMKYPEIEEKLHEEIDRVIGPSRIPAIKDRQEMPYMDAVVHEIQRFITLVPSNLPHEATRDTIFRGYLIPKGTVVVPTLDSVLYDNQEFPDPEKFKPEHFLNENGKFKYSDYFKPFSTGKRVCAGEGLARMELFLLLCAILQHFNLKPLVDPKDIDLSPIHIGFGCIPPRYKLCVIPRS
Method: Initial velocities of the oxidation of p-nitrophenol (p-NP) to p-nitrocatechol by human cytochrome P450 2E1 were determined by measuring the absorption at 535 nm or 546 nm to determine product formation as described before.
Alternatively, 100 mM HEPES pH 7.6 was additionally used for the enzyme kinetic measurements. A final concentration of either 50 nM enzyme in form of SUPERSOMES™ from BD Biosciences or microsomes in case of cell culture experiments was added. Reaction was initiated by adding 500 μM (enzyme kinetic measurements) or 0.1 mM (cell culture experiments) NADPH after preincubation at 37° C and stopped by adding 20% trichloroacetic acid (TCA) after 30 minutes to ensure linearity of product formation. The protein concentration for the microsomal fraction was determined by Bradford assay to calculate the results expressed as units of specific activity defined as the amount of enzyme that consumes 1 μmol/L of NADPH per hour per microgram of protein. Inhibitor stock solutions were prepared in 0.1% DMSO and diluted to a final DMSO concentration of 0.003% in the reaction mixture at most to avoid enzyme inhibition by this solvent. Inhibitory constants (Ki) were calculated by non-linear fitting of initial velocities. Maximum inhibition could not be achieved since final inhibitor concentrations were limited by DMSO.
Supplementary file pone.0235990.s002.tif: S2 Fig CYP2E1 inhibition by data base inhibitors. To ascertain whether an imidazole containing compound is already commercially available and better suited for development as a drug can-didate, we performed a large virtual library screening of the ZINK database. We found 14,738 hits. The 5,261 commercially available compounds could be classified as 4,710 synthetic and 551 natural molecules. After docking and final scoring process, the seven best synthetic and the three best natural candidates were purchased and tested in vitro for their potential to inhibit CYP2E1 activity. Different concentrations of these compounds dissolved in DMSO were added to 110 μM p-Nitrophenol in 100 mM HEPES buffer pH 7.6 and SUPERSOMES™ with 50 nM human CYP 2E1 to calculate relative activity values. […] 20 μM corresponds to a DMSO volume of 0.02% (v/v). (TIF) Click here for additional data file.

inhibitory effect on CYP2E1 (in words) ([3]; human CYP2E1 SUPERSOMES) | Structure (SMILES) | liver cholesterol decrease compared to disease group (ethanol-fed Wistar rats [1]; UDCA 40 mg/kg) | reduction of ethanol effect on hepatic cholesterol (ethanol-fed Wistar rats [1]; UDCA 40 mg/kg) | reduction of ethanol effect on hepatic triglycerides (ethanol-fed Wistar rats [1]) [%] | liver phospholipids decrease compared to disease group (ethanol-fed Wistar rats [1]) [%] | liver triglycerides decrease compared to disease group (ethanol-fed Wistar rats [1]) [%] | reduction of ethanol effect on hepatic phospholipids (ethanol-fed Wistar rats [1]) | reduction of ethanol effect on serum LDL cholesterol (ethanol-fed Wistar rats [1]; serum, UDCA 40 mg/kg) [%] | reduction of ethanol effect on serum VLDL (ethanol-fed Wistar rats [1]; serum, UDCA 40 mg/kg) [%] | serum LDL cholesterol decrease compared to disease group (ethanol-fed Wistar rats [1]; serum, average over doses) [%] | serum VLDL decrease compared to disease group (ethanol-fed Wistar rats [1]; serum, average over doses) [%] | reduction of ethanol effect on serum triglycerides (ethanol-fed Wistar rats [1]; serum) [%] | serum triglycerides decrease compared to disease group (ethanol-fed Wistar rats [1]; serum) [%] | liver morphology (histopathology, in words) (ethanol-fed Wistar rats [2]) | Ki value (in words) [3] | reduction of ethanol effect on serum LDL cholesterol (ethanol-fed Wistar rats [1]; serum, lowest concentration) [%]
lower affinity | CCCCCCCCCCCCn1ccnc1 [I-an, 1-Imidazolyldodecane] | 11% | 82% | 73 | 20 | 41 | completely eliminated | 70 | 59 | 24 | 18 | 83 | 41 | almost complete restoration of the physiological liver morphology | nanomolar range | –
– | OCCCCCCCCCCCCn1ccnc1 [I-ol] | no influence | no influence | 71 | 13 | 40 | 65% | – | 55 | – | 17 | 91 | 44 | almost complete restoration of the physiological liver morphology | nanomolar range | 61
